Values of other authors as cited in patent US20240207338A1, “KETAMINE AND CANNABIS FOR THE TREATMENT OF EMOTIONAL DISORDERS” (Progressive Therapeutics Inc, priority 2021, published 2024).

| Compound | potency for use in anesthesia relative to ketamine (versus ketamine) | potency for use in anesthesia relative to R-(−)-ketamine (versus R-(−)-ketamine) |
| --- | --- | --- |
| NC1(c2ccccc2Cl)CCCCC1=O (centres unmarked) [norketamine] | one third the potency | – |
| CN[C@]1(c2ccccc2Cl)CCCCC1=O [S-(+)-ketamine] | – | twice as potent |
